One may read the IC50 as the concentration that inhibits the measured activity by half.

For assay [1], the target named is T1, human VEGF receptor (VEGFR-2) (Homo sapiens, UniProt P35968).
T1 construct: The cytoplasmic domain of the human VEGF receptor (VEGFR-2) was expressed; His; made in house; host or cells: insect cells (baculovirus)
The assay can be described thus: VEGFR2 kinase assay. It counts as biochemical. The following applies: His-VEGFR-2 cytoplasmic domain, 3.6 μM ATP; Table IV, amide or urea linker; read-out: VEGFR2 Enzyme IC50. The method in brief:
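His-tagged VEGFR-2 cytoplasmic domain from baculovirus-infected insect cells phosphorylating plate-bound poly-Glu-Tyr (4:1). IC50 from blank-subtracted optical density versus compound concentration.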

The target of a further assay is VEGFR1 (Homo sapiens, UniProt P17948). The assay can be described thus: VEGFR1 enzyme assay. Type of assay: biochemical. The following applies: Table IV, amide or urea linker.
Sequence of VEGFR1 (P17948 27-1338, species assumed): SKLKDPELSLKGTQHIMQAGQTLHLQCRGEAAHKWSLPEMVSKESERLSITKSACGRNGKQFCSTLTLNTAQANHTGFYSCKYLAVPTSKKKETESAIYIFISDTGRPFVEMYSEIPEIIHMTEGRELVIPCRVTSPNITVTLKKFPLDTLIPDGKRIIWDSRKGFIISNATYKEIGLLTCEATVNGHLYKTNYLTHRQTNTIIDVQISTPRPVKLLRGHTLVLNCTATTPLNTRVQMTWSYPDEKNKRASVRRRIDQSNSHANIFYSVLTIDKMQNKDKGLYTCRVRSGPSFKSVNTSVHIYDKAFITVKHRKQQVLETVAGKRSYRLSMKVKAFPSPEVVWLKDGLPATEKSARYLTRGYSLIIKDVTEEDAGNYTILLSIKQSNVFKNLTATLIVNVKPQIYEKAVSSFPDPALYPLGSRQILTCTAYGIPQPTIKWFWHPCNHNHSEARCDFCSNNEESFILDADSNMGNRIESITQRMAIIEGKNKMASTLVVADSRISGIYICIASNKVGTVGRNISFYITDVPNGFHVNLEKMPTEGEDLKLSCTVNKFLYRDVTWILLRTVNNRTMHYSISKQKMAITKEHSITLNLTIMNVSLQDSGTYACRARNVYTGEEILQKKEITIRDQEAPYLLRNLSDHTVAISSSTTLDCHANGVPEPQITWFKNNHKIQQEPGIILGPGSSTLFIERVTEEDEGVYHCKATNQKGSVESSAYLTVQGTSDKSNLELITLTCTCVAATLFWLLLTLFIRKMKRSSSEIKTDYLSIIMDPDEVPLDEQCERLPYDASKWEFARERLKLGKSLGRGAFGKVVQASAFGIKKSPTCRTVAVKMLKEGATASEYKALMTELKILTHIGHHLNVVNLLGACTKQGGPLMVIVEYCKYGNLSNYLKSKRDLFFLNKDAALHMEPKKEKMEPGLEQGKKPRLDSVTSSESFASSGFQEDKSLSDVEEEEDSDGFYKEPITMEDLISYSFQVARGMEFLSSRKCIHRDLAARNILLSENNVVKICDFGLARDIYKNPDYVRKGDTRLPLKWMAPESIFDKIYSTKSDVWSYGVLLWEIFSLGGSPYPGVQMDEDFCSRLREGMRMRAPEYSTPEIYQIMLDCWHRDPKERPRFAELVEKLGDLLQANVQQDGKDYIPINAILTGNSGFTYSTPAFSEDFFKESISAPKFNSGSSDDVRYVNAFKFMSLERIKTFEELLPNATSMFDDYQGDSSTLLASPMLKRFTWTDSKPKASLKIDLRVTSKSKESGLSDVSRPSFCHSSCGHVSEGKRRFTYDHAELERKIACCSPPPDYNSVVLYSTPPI
For assay [2], the target named is T2, PDGFβ (Homo sapiens, UniProt P09619). The assay can be described thus: PDGFβ enzyme assay. It counts as biochemical. The settings on record: Table IV, amide or urea linker.
T2 sequence (P09619 33-1106): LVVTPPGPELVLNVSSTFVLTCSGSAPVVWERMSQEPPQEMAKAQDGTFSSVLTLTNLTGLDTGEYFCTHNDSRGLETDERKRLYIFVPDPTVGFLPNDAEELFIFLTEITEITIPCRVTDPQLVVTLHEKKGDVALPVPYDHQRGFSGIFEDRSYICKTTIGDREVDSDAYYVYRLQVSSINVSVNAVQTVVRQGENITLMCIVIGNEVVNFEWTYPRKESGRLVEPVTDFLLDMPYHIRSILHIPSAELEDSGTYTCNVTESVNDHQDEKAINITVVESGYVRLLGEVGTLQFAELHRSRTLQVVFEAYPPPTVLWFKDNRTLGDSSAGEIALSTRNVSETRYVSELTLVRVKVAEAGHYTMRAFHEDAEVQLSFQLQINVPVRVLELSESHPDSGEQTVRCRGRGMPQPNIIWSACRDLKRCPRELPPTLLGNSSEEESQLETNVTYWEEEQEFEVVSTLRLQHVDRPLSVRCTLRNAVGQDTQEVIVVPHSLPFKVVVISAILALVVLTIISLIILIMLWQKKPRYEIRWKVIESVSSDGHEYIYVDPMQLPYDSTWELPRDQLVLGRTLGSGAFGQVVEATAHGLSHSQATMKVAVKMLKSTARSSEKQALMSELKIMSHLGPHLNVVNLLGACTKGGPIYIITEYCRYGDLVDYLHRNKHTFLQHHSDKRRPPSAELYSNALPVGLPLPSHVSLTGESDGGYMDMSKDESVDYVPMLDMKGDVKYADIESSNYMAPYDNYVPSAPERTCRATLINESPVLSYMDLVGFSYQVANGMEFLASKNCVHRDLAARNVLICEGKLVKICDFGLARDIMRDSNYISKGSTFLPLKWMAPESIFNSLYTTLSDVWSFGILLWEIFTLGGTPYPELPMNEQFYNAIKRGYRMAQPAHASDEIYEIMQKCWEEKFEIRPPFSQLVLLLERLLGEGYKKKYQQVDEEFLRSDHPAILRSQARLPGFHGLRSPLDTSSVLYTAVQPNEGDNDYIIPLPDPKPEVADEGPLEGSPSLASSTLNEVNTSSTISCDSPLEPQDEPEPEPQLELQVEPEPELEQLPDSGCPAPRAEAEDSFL
Another assay deals with VEGFR2 (Homo sapiens, UniProt P35968). The assay can be described thus: VEGF stimulated Ca++ signal in vitro (FLIPR).
Sequence of VEGFR2 (P35968 20-1356): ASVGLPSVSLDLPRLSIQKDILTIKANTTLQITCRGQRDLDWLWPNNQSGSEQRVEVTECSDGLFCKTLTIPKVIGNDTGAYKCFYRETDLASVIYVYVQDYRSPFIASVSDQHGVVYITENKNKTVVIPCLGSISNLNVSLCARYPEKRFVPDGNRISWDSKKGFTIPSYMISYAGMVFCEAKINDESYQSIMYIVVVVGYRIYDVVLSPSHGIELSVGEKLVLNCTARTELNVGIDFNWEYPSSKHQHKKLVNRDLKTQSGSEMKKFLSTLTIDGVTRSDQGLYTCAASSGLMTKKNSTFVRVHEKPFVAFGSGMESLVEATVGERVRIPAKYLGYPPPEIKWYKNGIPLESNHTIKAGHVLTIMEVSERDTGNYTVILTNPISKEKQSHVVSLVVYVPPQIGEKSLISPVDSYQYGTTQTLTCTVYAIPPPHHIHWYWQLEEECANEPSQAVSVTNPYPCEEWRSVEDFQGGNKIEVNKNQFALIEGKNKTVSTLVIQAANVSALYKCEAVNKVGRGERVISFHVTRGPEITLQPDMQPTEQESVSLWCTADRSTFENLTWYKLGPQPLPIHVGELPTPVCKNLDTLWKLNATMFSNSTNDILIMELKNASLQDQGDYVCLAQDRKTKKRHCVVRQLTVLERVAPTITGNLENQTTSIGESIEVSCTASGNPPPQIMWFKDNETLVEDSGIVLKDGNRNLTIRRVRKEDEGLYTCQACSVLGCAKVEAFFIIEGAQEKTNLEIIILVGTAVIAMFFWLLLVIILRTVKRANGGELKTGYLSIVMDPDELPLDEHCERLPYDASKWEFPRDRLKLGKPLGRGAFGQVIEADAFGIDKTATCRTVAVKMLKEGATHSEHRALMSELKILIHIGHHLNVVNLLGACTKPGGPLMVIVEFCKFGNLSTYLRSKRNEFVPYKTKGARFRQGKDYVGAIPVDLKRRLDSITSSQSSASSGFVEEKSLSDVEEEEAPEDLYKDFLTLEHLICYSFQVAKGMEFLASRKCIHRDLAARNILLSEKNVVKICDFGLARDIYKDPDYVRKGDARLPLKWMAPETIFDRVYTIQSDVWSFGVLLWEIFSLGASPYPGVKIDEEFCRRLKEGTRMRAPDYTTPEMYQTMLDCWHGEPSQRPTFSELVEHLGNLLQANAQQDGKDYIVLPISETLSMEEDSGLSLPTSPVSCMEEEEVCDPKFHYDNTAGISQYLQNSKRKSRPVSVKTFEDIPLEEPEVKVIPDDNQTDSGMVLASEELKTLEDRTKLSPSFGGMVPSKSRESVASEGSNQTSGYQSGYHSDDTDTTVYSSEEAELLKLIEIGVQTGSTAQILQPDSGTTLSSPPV
Assay [3] has as its target T2, PDGFβ. The assay can be described thus: PDGF stimulated Ca2+ signal in vitro (FLIPR). Type of assay: cell-based. The settings on record: NHDF-Ad, PDGF stimulation 10 ng/mL; Table IV, amide or urea linker; read-out: PDGFβ Cellular IC50. Also on record: host or cells: NHDF-Ad (normal human dermal fibroblasts).

T1 sequence (P35968 786-1356 limits assumed): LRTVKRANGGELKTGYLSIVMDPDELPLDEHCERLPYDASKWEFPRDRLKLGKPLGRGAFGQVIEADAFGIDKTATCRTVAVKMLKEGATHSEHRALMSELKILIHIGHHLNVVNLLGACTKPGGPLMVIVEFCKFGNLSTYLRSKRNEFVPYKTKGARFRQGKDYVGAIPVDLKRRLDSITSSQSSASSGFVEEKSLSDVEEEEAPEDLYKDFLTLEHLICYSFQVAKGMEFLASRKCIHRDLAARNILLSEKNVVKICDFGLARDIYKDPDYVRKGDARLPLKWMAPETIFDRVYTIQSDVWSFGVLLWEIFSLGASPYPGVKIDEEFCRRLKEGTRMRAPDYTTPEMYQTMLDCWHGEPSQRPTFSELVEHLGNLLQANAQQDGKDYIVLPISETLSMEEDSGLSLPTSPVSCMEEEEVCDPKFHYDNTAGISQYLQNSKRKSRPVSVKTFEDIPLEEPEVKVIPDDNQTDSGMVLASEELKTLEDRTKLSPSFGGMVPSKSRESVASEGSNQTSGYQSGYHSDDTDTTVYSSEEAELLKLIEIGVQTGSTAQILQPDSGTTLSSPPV

In the case of `COC(=O)CC[C@H](NC(=O)c1c[nH]c(-c2cc(Oc3ccc(NC(=O)Nc4cccc(C)c4)c(F)c3)ccn2)c1)C(=O)OC` [Example 230, dimethyl 2-{[(5-{4-[3-fluoro-4-({[(3-methylphenyl)amino]carbonyl}amino)phenoxy]pyridin-2-yl}-1H-pyrrol-3-yl)carbonyl]amino}pentanedioate], the IC50 is 6 nM in assay [1]; 9 nM at VEGFR1; 12 nM at PDGFβ [2]; 2 nM against VEGFR2; 31 nM at PDGFβ [3].
